This note sets out measurements from paper PMC7531004, “Discovery of gramicidin A analogues with altered activities by multidimensional screening of a one-bead-one-compound library” (Nature Communications, 2020).

As usually defined, the viability is a per cent measure of how many cells are alive, often set against a control.

For data set [1] the following is noted: cell viability/%. In outline:
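P388 cells at 1 × 10^4 cells/mL (final) were exposed to library peptides (stocks diluted 250-fold in RPMI1640/10% FBS) for 92 h at 37 °C, 5% CO2. Viable cells were counted by WST-1/1-methoxy PMS (4 h), absorbance 415 nm, and expressed as cell viability (%).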

Data set [2] has as its system Streptococcus pyogenes SSI-9. The data set can be described thus: Antibacterial activity assay of bead-derived peptides (three concentrations). The class given is cell-based. More on the design: key: +++: inhibition by the 640-fold diluted peptide solution; ++: inhibition by the 160-fold diluted solution; +: inhibition by the 40-fold diluted solution; -: no inhibition. Particulars: S. pyogenes, bead-derived peptide solution, three concentrations. In outline: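 Library peptide stock applied undiluted, 4-fold and 16-fold diluted in DMSO to S. pyogenes SSI-9 (2 × 10^5 CFU) in cation-adjusted Mueller Hinton broth with 5% laked horse blood. After 18 h at 37 °C, growth judged by visible cell precipitation.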

The nature of data set [3]: H+/Na+ transport assay of bead-derived peptides (one-point).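 Note: relative to parent gramicidin A activity set to 1.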 The class given is biochemical. More on the design: key: relative activity; mean of two control wells = 1.00. Particulars: bead-derived peptide solution, EYPC/EYPG LUVs. In outline: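 One-point screen: peptide + pyranine-loaded LUVs, 30 min RT with vortexing, 96-well. Read-out is fluorescence intensity scaled as 100 × (Ix – I0)/(Imax – I0). Imax from Triton X-100, I0 from untreated vesicles, and the mean of the two control wells is set to 1.00.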

Where a SMILES comes first, the peptide text is derived from it. [ ]: non-standard residue; d: D form. The star is where a group is joined. NHCH2CH2OH = OCCN*; For = O=C*

Consider `CNC(=O)C[C@@H](NC(=O)[C@H](Cc1c[nH]c2ccccc12)NC(=O)[C@@H](CC(C)C)NC(=O)[C@H](Cc1c[nH]c2ccccc12)NC(=O)[C@H](NC(=O)[C@H](Cc1c[nH]c2ccccc12)NC(=O)[C@H](NC(=O)[C@@H](NC(=O)[C@H](NC(=O)[C@H](C)NC(=O)[C@@H](CC(C)C)NC(=O)[C@H](C)NC(=O)CNC(=O)[C@@H](NC=O)C(C)C)C(C)C)C(C)C)C(C)C)C(C)C)C(=O)N[C@@H](Cc1c[nH]c2ccccc12)C(=O)NCCO` [compound 4898] (For-VGA[dL]A[dV]V[dV]W[dV]W[dL]W[dD](NHMe)W-NHCH2CH2OH), for which the viability in data set [1] turned out to be 100%. Besides, the antibacterial activity entry in data set [2] was “-”. Further, in data set [3], the “H+/Na+ transport activity normalized against the value of 1 (1.00)” value (from here on “H+/Na+ transport activity normalized”) amounted to 1.21.
Taken in the same sequence, the figures for `CC(C)C[C@@H](NC(=O)[C@H](C)NC(=O)CNC(=O)[C@@H](NC=O)C(C)C)C(=O)N[C@@H](C)C(=O)N[C@@H](C(=O)N[C@H](C(=O)N[C@@H](C(=O)N[C@@H](Cc1c[nH]c2ccccc12)C(=O)N[C@@H](C(=O)N[C@@H](Cc1c[nH]c2ccccc12)C(=O)N[C@H](CC(C)C)C(=O)N[C@@H](Cc1c[nH]c2ccccc12)C(=O)N[C@@H](C(=O)N[C@@H](Cc1c[nH]c2ccccc12)C(=O)NCCO)C(C)C)C(C)C)[C@H](C)O)C(C)C)C(C)C` [compound 2154] (For-VGA[dL]A[dV]V[dT]W[dV]W[dL]W[dV]W-NHCH2CH2OH) were 100%, “-” and 1.09.
As for `CNC(=O)C[C@@H](NC(=O)[C@H](Cc1c[nH]c2ccccc12)NC(=O)[C@H](NC(=O)[C@@H](NC(=O)[C@@H](CC(C)C)NC(=O)[C@H](C)NC(=O)[C@H](NC(=O)[C@H](C)NC(=O)CNC(=O)[C@@H](NC=O)C(C)C)C(C)C)C(C)C)C(C)C)C(=O)N[C@@H](Cc1c[nH]c2ccccc12)C(=O)N[C@H](CC(C)C)C(=O)N[C@@H](Cc1c[nH]c2ccccc12)C(=O)N[C@H](CC(C)C)C(=O)N[C@@H](Cc1c[nH]c2ccccc12)C(=O)NCCO` [compound 5838] (For-VGA[dV]A[dL]V[dV]W[dD](NHMe)W[dL]W[dL]W-NHCH2CH2OH), the viability in data set [1] is 100%. For the same compound, the antibacterial activity entry in data set [2] was “-”. In addition, the “H+/Na+ transport activity normalized” value in data set [3] was found to be 1.12.
Compound `CNC(=O)C[C@@H](NC(=O)[C@H](C)NC(=O)[C@@H](CC(C)C)NC(=O)[C@H](C)NC(=O)CNC(=O)[C@@H](NC=O)C(C)C)C(=O)N[C@H](C(=O)N[C@@H](C(=O)N[C@@H](Cc1c[nH]c2ccccc12)C(=O)N[C@@H](C(=O)N[C@@H](Cc1c[nH]c2ccccc12)C(=O)N[C@H](CC(C)C)C(=O)N[C@@H](Cc1c[nH]c2ccccc12)C(=O)N[C@@H](C(=O)N[C@@H](Cc1c[nH]c2ccccc12)C(=O)NCCO)C(C)C)C(C)C)C(C)C)C(C)C` [compound 8583] (For-VGA[dL]A[dD](NHMe)V[dV]W[dV]W[dL]W[dV]W-NHCH2CH2OH) gave a viability in data set [1] of 63.4%. Besides, the antibacterial activity result in data set [2] is on record as “-”. Moreover, in data set [3], the “H+/Na+ transport activity normalized” value turned out to be 1.15.
Taken in the same sequence, the figures for `CNC(=O)C[C@@H](NC(=O)[C@@H](NC(=O)[C@H](NC(=O)[C@H](C)NC(=O)[C@@H](CC(C)C)NC(=O)[C@H](C)NC(=O)CNC(=O)[C@@H](NC=O)C(C)C)C(C)C)C(C)C)C(=O)N[C@@H](Cc1c[nH]c2ccccc12)C(=O)N[C@H](CC(C)C)C(=O)N[C@@H](Cc1c[nH]c2ccccc12)C(=O)N[C@H](CC(C)C)C(=O)N[C@@H](Cc1c[nH]c2ccccc12)C(=O)N[C@@H](C(=O)N[C@@H](Cc1c[nH]c2ccccc12)C(=O)NCCO)C(C)C` [compound 7204] (For-VGA[dL]A[dV]V[dD](NHMe)W[dL]W[dL]W[dV]W-NHCH2CH2OH) were 100%, “-” and 1.17.
Taken in the same sequence, the figures for `CC(C)C[C@@H](NC(=O)[C@H](C)NC(=O)[C@H](NC(=O)[C@H](C)NC(=O)CNC(=O)[C@@H](NC=O)C(C)C)C(C)C)C(=O)N[C@H](C(=O)N[C@@H](C(=O)N[C@@H](Cc1c[nH]c2ccccc12)C(=O)N[C@@H](C(=O)N[C@@H](Cc1c[nH]c2ccccc12)C(=O)N[C@@H](C(=O)N[C@@H](Cc1c[nH]c2ccccc12)C(=O)N[C@@H](C(=O)N[C@@H](Cc1c[nH]c2ccccc12)C(=O)NCCO)C(C)C)C(C)C)C(C)C)[C@H](C)O)C(C)C` [compound 3492] (For-VGA[dV]A[dL]V[dT]W[dV]W[dV]W[dV]W-NHCH2CH2OH) were 100%, “-” and 1.12.
As to `CNC(=O)C[C@@H](NC(=O)[C@H](Cc1c[nH]c2ccccc12)NC(=O)[C@H](NC(=O)[C@H](Cc1c[nH]c2ccccc12)NC(=O)[C@@H](CC(C)C)NC(=O)[C@@H](NC(=O)[C@@H](CC(C)C)NC(=O)[C@H](C)NC(=O)[C@@H](CC(C)C)NC(=O)[C@H](C)NC(=O)CNC(=O)[C@@H](NC=O)C(C)C)C(C)C)C(C)C)C(=O)N[C@@H](Cc1c[nH]c2ccccc12)C(=O)N[C@@H](C(=O)N[C@@H](Cc1c[nH]c2ccccc12)C(=O)NCCO)[C@H](C)O` [compound 3885] (For-VGA[dL]A[dL]V[dL]W[dV]W[dD](NHMe)W[dT]W-NHCH2CH2OH), in data set [1], the viability was 100%. Besides, the antibacterial activity result in data set [2] is “-”. Besides, in data set [3], the “H+/Na+ transport activity normalized” value was determined as 1.00.
On the same counts, the results for `CC(C)C[C@@H](NC(=O)[C@H](C)NC(=O)CNC(=O)[C@@H](NC=O)C(C)C)C(=O)N[C@@H](C)C(=O)N[C@H](CC(C)C)C(=O)N[C@H](C(=O)N[C@H](CC(C)C)C(=O)N[C@@H](Cc1c[nH]c2ccccc12)C(=O)N[C@H](CC(C)C)C(=O)N[C@@H](Cc1c[nH]c2ccccc12)C(=O)N[C@@H](C(=O)N[C@@H](Cc1c[nH]c2ccccc12)C(=O)N[C@@H](C(=O)N[C@@H](Cc1c[nH]c2ccccc12)C(=O)NCCO)[C@H](C)O)C(C)C)C(C)C` [compound 7512] (For-VGA[dL]A[dL]V[dL]W[dL]W[dV]W[dT]W-NHCH2CH2OH) are 100%, “-” and 1.05.
In turn, `CC(C)C[C@@H](NC(=O)[C@H](C)NC(=O)CNC(=O)[C@@H](NC=O)C(C)C)C(=O)N[C@@H](C)C(=O)N[C@H](CC(C)C)C(=O)N[C@H](C(=O)N[C@@H](C(=O)N[C@@H](Cc1c[nH]c2ccccc12)C(=O)N[C@@H](C(=O)N[C@@H](Cc1c[nH]c2ccccc12)C(=O)N[C@H](CC(C)C)C(=O)N[C@@H](Cc1c[nH]c2ccccc12)C(=O)N[C@H](CC(C)C)C(=O)N[C@@H](Cc1c[nH]c2ccccc12)C(=O)NCCO)C(C)C)[C@H](C)O)C(C)C` [compound 1631] (For-VGA[dL]A[dL]V[dT]W[dV]W[dL]W[dL]W-NHCH2CH2OH) came in with a viability in data set [1] of 100%. In addition, the antibacterial activity entry in data set [2] was “-”. For the same compound, the “H+/Na+ transport activity normalized” value in data set [3] is 1.04.
On the same counts, the results for `CC(C)C[C@@H](NC(=O)[C@H](C)NC(=O)CNC(=O)[C@@H](NC=O)C(C)C)C(=O)N[C@@H](C)C(=O)N[C@H](CC(C)C)C(=O)N[C@H](C(=O)N[C@@H](C(=O)N[C@@H](Cc1c[nH]c2ccccc12)C(=O)N[C@H](CC(C)C)C(=O)N[C@@H](Cc1c[nH]c2ccccc12)C(=O)N[C@@H](C(=O)N[C@@H](Cc1c[nH]c2ccccc12)C(=O)N[C@H](CC(C)C)C(=O)N[C@@H](Cc1c[nH]c2ccccc12)C(=O)NCCO)C(C)C)[C@H](C)O)C(C)C` [compound 8604] (For-VGA[dL]A[dL]V[dT]W[dL]W[dV]W[dL]W-NHCH2CH2OH) are 54.4%, “-” and 1.08.
Taken in the same sequence, the figures for `CNC(=O)C[C@@H](NC(=O)[C@H](Cc1c[nH]c2ccccc12)NC(=O)[C@@H](CC(C)C)NC(=O)[C@H](Cc1c[nH]c2ccccc12)NC(=O)[C@@H](CC(C)C)NC(=O)[C@@H](NC(=O)[C@H](NC(=O)[C@H](C)NC(=O)[C@H](NC(=O)[C@H](C)NC(=O)CNC(=O)[C@@H](NC=O)C(C)C)C(C)C)C(C)C)C(C)C)C(=O)N[C@@H](Cc1c[nH]c2ccccc12)C(=O)N[C@H](CC(C)C)C(=O)N[C@@H](Cc1c[nH]c2ccccc12)C(=O)NCCO` [compound 4203] (For-VGA[dV]A[dV]V[dL]W[dL]W[dD](NHMe)W[dL]W-NHCH2CH2OH) were 100%, “-” and 1.16.
On the same counts, the results for `CC(C)C[C@@H](NC(=O)[C@H](C)NC(=O)[C@H](NC(=O)[C@H](C)NC(=O)CNC(=O)[C@@H](NC=O)C(C)C)C(C)C)C(=O)N[C@H](C(=O)N[C@H](CC(C)C)C(=O)N[C@@H](Cc1c[nH]c2ccccc12)C(=O)N[C@H](CC(C)C)C(=O)N[C@@H](Cc1c[nH]c2ccccc12)C(=O)N[C@H](CC(C)C)C(=O)N[C@@H](Cc1c[nH]c2ccccc12)C(=O)N[C@H](CC(C)C)C(=O)N[C@@H](Cc1c[nH]c2ccccc12)C(=O)NCCO)C(C)C` [compound 527] (For-VGA[dV]A[dL]V[dL]W[dL]W[dL]W[dL]W-NHCH2CH2OH) are 5.9%, “++” and 1.16.
